These results are taken from patent US9079866B2, “Flap modulators” (JANSSEN PHARMACEUTICA NV, priority 2013, dated 2015).

The target of assay [1] is human FLAP (Homo sapiens (Human), UniProt P20292). The assay can be described thus: FLAP binding assay (HTRF format). The note with it: wild type FLAP, HTRF format. The method, boiled down:
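Binding of compounds to FLAP read out as HTRF ratio. Values are the mean of two assay plates, each sample run in duplicate per plate.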
A general note: In TR-FRET formats the signal depends on donor and acceptor labels being close together.

Assay [2] has as its system leukotriene pathway in human whole blood (LTB4 levels). The assay can be described thus: Human whole blood assay (A23187-stimulated LTB4). It counts as cell-based. The note with it: Homo sapiens, human whole blood diluted 1:1, A23187-stimulated; read-out: LTB4 IC50 1:1. The method, boiled down:
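Compounds are pre-incubated 15 min at 37° Celsius in RPMI-diluted (1:1) heparinised whole blood before a 30 min A23187 stimulus (7 μg/mL). Plasma LTB4 is read by immunoassay kit, with IC50 calculated from a 4-parameter equation.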

human FLAP, sequence (P20292 whole entry): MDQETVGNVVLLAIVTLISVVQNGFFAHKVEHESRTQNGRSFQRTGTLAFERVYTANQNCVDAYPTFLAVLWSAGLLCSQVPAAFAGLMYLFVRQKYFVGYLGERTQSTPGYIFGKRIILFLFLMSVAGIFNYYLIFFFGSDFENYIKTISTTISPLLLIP

For `CC(C)CS(=O)(=O)N(C)c1ccccc1-c1ccc(-c2cnc(N)cn2)c(F)c1` [Example 497, N-[4′-(5-Aminopyrazin-2-yl)-3′-fluorobiphenyl-2-yl]-N,2-dimethylpropane-1-sulfonamide], the affinity in assay [1], expressed as Ki, was 0.025 µM. The concentration for half-maximal inhibition (IC50) (usually the concentration that gives 50% inhibition) in assay [2] was 0.51 µM.
`O=C(c1ccccc1-c1ccc(-c2cnc3[nH]ccc3c2)c(F)c1)N1CCOCC1` [Example 498, 5-[3-Fluoro-2′-(morpholin-4-ylcarbonyl)biphenyl-4-yl]-1H-pyrrolo[2,3-b]pyridine]: the inhibition constant (Ki) (in general, the equilibrium dissociation constant of an inhibitor or competing ligand from its target) in assay [1] is 0.016 µM. The IC50 in assay [2] came to 0.111 µM.
Regarding `O=C(c1ccccc1-c1ccc(-c2cnc3[nH]ccc3n2)c(F)c1)N1CCOCC1` [Example 500, 2-[3-Fluoro-2′-(morpholin-4-ylcarbonyl)biphenyl-4-yl]-5H-pyrrolo[2,3-b]pyrazine], the affinity in assay [1] corresponds to a Ki of 0.048 µM. For the same molecule, the 50% inhibitory concentration (IC50) in assay [2] amounted to 0.139 µM.
For `CC(C)(C)NC(=O)c1cc(F)ccc1-c1ccc(-c2cnc(N)cn2)c(F)c1` [Example 502, 4′-(5-Aminopyrazin-2-yl)-N-tert-butyl-3′,4-difluorobiphenyl-2-carboxamide], in that order: 0.083 µM and 0.363 µM.
On the same counts, the results for `CCN(CC)C(=O)c1ccccc1-c1ccc(-c2cnc(N)cn2)c(F)c1` [Example 503, 4′-(5-Aminopyrazin-2-yl)-N,N-diethyl-3′-fluorobiphenyl-2-carboxamide] are 0.014 µM and 0.092 µM.
For `C[C@H](NC(=O)c1ccccc1-c1ccc(-c2cnc(N)cn2)c(F)c1)C(F)(F)F` [Example 505, 4′-(5-Aminopyrazin-2-yl)-3′-fluoro-N-[(1S)-2,2,2-trifluoro-1-methylethyl]biphenyl-2-carboxamide], in that order: 0.018 µM and 0.071 µM.
`Nc1cnc(-c2ccc(-c3ccccc3C(=O)N3CCS(=O)(=O)CC3)cc2F)cn1` [Example 509, 5-{2′-[(1,1-Dioxidothiomorpholin-4-yl)carbonyl]-3-fluorobiphenyl-4-yl}pyrazin-2-amine]: the affinity in assay [1] corresponds to a Ki of 0.147 µM. Moreover, the IC50 in assay [2] came to 0.093 µM.
On the same counts, the results for `C[C@@H](NC(=O)c1ccccc1-c1ccc(-c2cnc(N)cn2)c(F)c1)C(F)(F)F` [Example 511, 4′-(5-Aminopyrazin-2-yl)-3′-fluoro-N-[(1R)-2,2,2-trifluoro-1-methylethyl]biphenyl-2-carboxamide] are 0.213 µM and 0.323 µM.
`C[C@H](CO)NC(=O)c1ccccc1-c1ccc(-c2cnc(N)cn2)c(F)c1` [Example 512, 4′-(5-Aminopyrazin-2-yl)-3′-fluoro-N-[(1R)-2-hydroxy-1-methylethyl]biphenyl-2-carboxamide] returned a Ki in assay [1] of 0.443 µM. In addition, in assay [2], the half-maximal inhibitory concentration (IC50) was 0.47 µM.
For `Nc1cnc(-c2ccc(-c3ccccc3C(=O)N3CCC(O)CC3)cc2F)cn1` [Example 514, 1-{[4′-(5-Aminopyrazin-2-yl)-3′-fluorobiphenyl-2-yl]carbonyl}piperidin-4-ol], in that order: 0.132 µM and 0.148 µM.
On the same counts, the results for `Nc1cnc(-c2ccc(-c3ccc(C(F)(F)F)cc3C(=O)N3CCOCC3)cc2F)cn1` [Example 521, 5-[3-Fluoro-2′-(morpholin-4-ylcarbonyl)-4′-(trifluoromethyl)biphenyl-4-yl]pyrazin-2-amine] are 0.005 µM and 0.013 µM.
On the same counts, the results for `Nc1ncc(-c2ccc(-c3ccc(C(F)(F)F)cc3C(=O)N3CCOCC3)cc2F)cn1` [Example 522, 5-[3-Fluoro-2′-(morpholin-4-ylcarbonyl)-4′-(trifluoromethyl)biphenyl-4-yl]pyrimidin-2-amine] are 0.348 µM and 0.393 µM.
`Nc1nccc(Oc2ccccc2-c2ccc(-c3cnc4[nH]ccc4c3)c(F)c2)n1` [Example 523, 4-{[3′-Fluoro-4′-(1H-pyrrolo[2,3-b]pyridin-5-yl)biphenyl-2-yl]oxy}pyrimidin-2-amine] returned a Ki in assay [1] of 0.001 µM. Also, the IC50 in assay [2] worked out at 0.025 µM.
As to `Nc1ccnc(Oc2ccccc2-c2ccc(-c3cnc4[nH]ccc4c3)c(F)c2)n1` [Example 524, 2-{[3′-Fluoro-4′-(1H-pyrrolo[2,3-b]pyridin-5-yl)biphenyl-2-yl]oxy}pyrimidin-4-amine], the affinity in assay [1], expressed as Ki, was 0.001 µM. Further, the 50% inhibitory concentration (IC50) in assay [2] was found to be 0.018 µM.
On the same counts, the results for `Fc1cc(-c2ccccc2Oc2ncccn2)ccc1-c1cnc2[nH]ccc2c1` [Example 525, 5-[3-Fluoro-2′-(pyrimidin-2-yloxy)biphenyl-4-yl]-1H-pyrrolo[2,3-b]pyridine] are 0.003 µM and 0.036 µM.
For `Nc1ncc(-c2ccc(-c3ccccc3Oc3ncccn3)cc2F)cn1` [Example 527, 5-[3-Fluoro-2′-(pyrimidin-2-yloxy)biphenyl-4-yl]pyrimidin-2-amine], in that order: 0.074 µM and 0.183 µM.
On the same counts, the results for `Nc1cnc(-c2ccc(-c3ccccc3Oc3nccc(N)n3)cc2F)cn1` [Example 528, 2-{[4′-(5-Aminopyrazin-2-yl)-3′-fluorobiphenyl-2-yl]oxy}pyrimidin-4-amine] are 0.005 µM and 0.034 µM.
In turn, `Nc1ccnc(Oc2ccccc2-c2ccc(-c3cnc(N)nc3)c(F)c2)n1` [Example 529, 5-{2′-[(4-Aminopyrimidin-2-yl)oxy]-3-fluorobiphenyl-4-yl}pyrimidin-2-amine] gave a Ki in assay [1] of 0.036 µM. In addition, in assay [2], the IC50 was found to be 0.09 µM.
On to `N#Cc1cccc(COc2ccccc2-c2ccc(-c3cnc(N)cn3)c(F)c2)n1` [Example 530, 6-({[4′-(5-Aminopyrazin-2-yl)-3′-fluorobiphenyl-2-yl]oxy}methyl)pyridine-2-carbonitrile], for which the Ki in assay [1] turned out to be 0.034 µM. For the same molecule, the IC50 in assay [2] is 1.11 µM.
For `N#Cc1cccnc1COc1ccccc1-c1ccc(-c2cnc(N)cn2)c(F)c1` [Example 531, 2-({[4′-(5-Aminopyrazin-2-yl)-3′-fluorobiphenyl-2-yl]oxy}methyl)pyridine-3-carbonitrile], in that order: 0.008 µM and 0.323 µM.
For `N#Cc1cccnc1Oc1ccccc1-c1ccc(-c2cnc(N)cn2)c(F)c1` [Example 532, 2-{[4′-(5-Aminopyrazin-2-yl)-3′-fluorobiphenyl-2-yl]oxy}pyridine-3-carbonitrile], in that order: 0.006 µM and 0.032 µM.
On the same counts, the results for `Nc1cnc(-c2ccc(-c3ccccc3Oc3ccnc(N)n3)cc2F)cn1` [Example 533, 4-{[4′-(5-Aminopyrazin-2-yl)-3′-fluorobiphenyl-2-yl]oxy}pyrimidin-2-amine] are 0.005 µM and 0.023 µM.
In turn, `Nc1ncc(-c2ccc(-c3ccccc3Oc3ccnc(N)n3)cc2F)cn1` [Example 534, 4-{[4′-(2-Aminopyrimidin-5-yl)-3′-fluorobiphenyl-2-yl]oxy}pyrimidin-2-amine] yielded a Ki in assay [1] of 0.012 µM. For the same molecule, the IC50 in assay [2] was found to be 0.069 µM.
On the same counts, the results for `Nc1cnc(-c2ccc(-c3ccccc3Oc3cc(N)ncn3)cc2F)cn1` [Example 535, 6-{[4′-(5-Aminopyrazin-2-yl)-3′-fluorobiphenyl-2-yl]oxy}pyrimidin-4-amine] are 0.001 µM and 0.017 µM.
On to `Nc1cc(Oc2ccccc2-c2ccc(-c3cnc(N)nc3)c(F)c2)ncn1` [Example 536, 5-{2′-[(6-Aminopyrimidin-4-yl)oxy]-3-fluorobiphenyl-4-yl}pyrimidin-2-amine], for which the Ki in assay [1] was found to be 0.021 µM. Moreover, the IC50 in assay [2] stood at 0.068 µM.
For `N#Cc1cc(Oc2ccccc2-c2ccc(-c3cnc(N)cn3)c(F)c2)ccn1` [Example 537, 4-{[4′-(5-Aminopyrazin-2-yl)-3′-fluorobiphenyl-2-yl]oxy}pyridine-2-carbonitrile], in that order: 0.003 µM and 0.042 µM.
On the same counts, the results for `Nc1cnc(-c2ccc(-c3ccccc3Oc3cc(N4CCC4)ncn3)cc2F)cn1` [Example 539, 5-{2′-[(6-Azetidin-1-ylpyrimidin-4-yl)oxy]-3-fluorobiphenyl-4-yl}pyrazin-2-amine] are 0.002 µM and 0.052 µM.
For `Nc1ncc(-c2ccc(-c3ccccc3Oc3cc(N4CCC4)ncn3)cc2F)cn1` [Example 540, 5-{2′-[(6-Azetidin-1-ylpyrimidin-4-yl)oxy]-3-fluorobiphenyl-4-yl}pyrimidin-2-amine], in that order: 0.016 µM and 0.085 µM.
Molecule `Cc1nccc(Oc2ccccc2-c2ccc(-c3cnc(N)cn3)c(F)c2)n1` [Example 541, 5-{3-Fluoro-2′-[(2-methylpyrimidin-4-yl)oxy]biphenyl-4-yl}pyrazin-2-amine] showed a Ki in assay [1] of 0.012 µM. The half-maximal inhibitory concentration (IC50) in assay [2] was found to be 0.066 µM.
`Cc1nccc(Oc2ccccc2-c2ccc(-c3cnc(N)nc3)c(F)c2)n1` [Example 542, 5-{3-Fluoro-2′-[(2-methylpyrimidin-4-yl)oxy]penyl-4-yl}pyrimidin-2-amine] yielded a Ki in assay [1] of 0.107 µM. Besides, the IC50 in assay [2] stood at 0.311 µM.
On the same counts, the results for `Fc1cc(-c2ccccc2Oc2ncccn2)ccc1-c1ccc2[nH]cnc2c1` [Example 543, 5-[3-Fluoro-2′-(pyrimidin-2-yloxy)biphenyl-4-yl]-1H-benzimidazole] are 0.444 µM and 4.17 µM.
For `Fc1cc(-c2ccccc2Oc2ncccn2)ccc1-c1cnc2[nH]cnc2c1` [Example 544, 6-[3-Fluoro-2′-(pyrimidin-2-yloxy)biphenyl-4-yl]-3H-imidazo[4,5-b]pyridine], in that order: 0.028 µM and 1.65 µM.
On the same counts, the results for `Cc1ccnc(Oc2ccccc2-c2ccc(-c3cnc(N)cn3)c(F)c2)n1` [Example 545, 5-{3-Fluoro-2′-[(4-methylpyrimidin-2-yl)oxy]biphenyl-4-yl}pyrazin-2-amine] are 0.012 µM and 0.05 µM.
